Counter-ions that a name gives are not always drawn. Values belong to the molecule of their own block, whether it stands above or below them.
Experiments:
[1] = saturated solubility in solvents; format: physicochemical
[2] = topical regional use; relative to piroxicam; cited from earlier work

saturated solubility in polyethylene glycol ([1]; solvent polyethylene glycol): 11.18 % w/w | saturated solubility in propanol or iso-propanol ([1]; solvent propanol or iso-propanol): 3-4% | saturated solubility in pure ethanol ([1]; solvent pure ethanol): 5 % w/w
Compound: O=C(O)Cc1ccccc1Nc1c(Cl)cccc1Cl [diclofenac acid]

Compound: O=C(O)Cc1ccccc1Nc1c(Cl)cccc1Cl [diclofenac]
efficacy index, factor greater than that for piroxicam [2]: ~1000

saturated solubility in propylene glycol ([1]; solvent propylene glycol): approximately 50 % w/w
Compound: O=C(O)Cc1ccccc1Nc1c(Cl)cccc1Cl [sodium salt of diclofenac acid, diclofenac sodium]

Reference: patent US8541470B2, “Topical pharmaceutical formulation” (Futura Medical Developments Limited, priority 2007, dated 2013)
